SMILES strings stand for the structures.

The assay addresses Replicase polyprotein 1ab (Severe acute respiratory syndrome coronavirus 2) (UniProt P0DTD1).

Description: Functional biochemical assay to identify treatments for viral infectious disease that targets SARS-COV-2 nsp3 macrodomain, whereby the mechanism of action displaces an ADP-Ribose modified peptide from the binding site. Utilizing a time-resolved fluorescence method to measure binding by reading the emitted fluorescence intensity in two wavelengths.

Regarding `O=C(Nc1cnc2[nH]ncc2c1)c1ccccc1CN1CCOCC1`, the inhibition (as a rule, the relative decrease from the control value, in per cent) (Concentration 50.0 uM, Number of replicates 2.0, Standard deviation 2.919 %) is -3.24%.

As to `O=C(Nc1ccc(C(=O)NCc2c(C(=O)O)[nH]c3ccccc23)cc1)NC1CC1`, where the note is “Concentration 50.0 uM, Number of replicates 2.0, Standard deviation 1.193 %”, the inhibition was 86.2%.

For `FC(F)(F)c1nc(NC[C@H]2CCCO2)c2nc[nH]c2n1`, the inhibition (Concentration 50.0 uM, Number of replicates 2.0, Standard deviation 2.867 %) stood at 2.5%.

For the compound `CC1(C)CNCCN1C(=O)c1ccc(NC(=O)Nc2ccccc2)cc1`, the inhibition was 2.24% (Concentration 49.75 uM, Number of replicates 2.0, Standard deviation 5.654 %) and 1.39% (Concentration 99.5 uM, Number of replicates 2.0, Standard deviation 1.022 %).

For `CCc1n[nH]c(NC(=O)c2ccc(NC(=O)Nc3ccccc3)cc2)c1Br`, the inhibition is, setting by setting: (Concentration 49.75 uM, Number of replicates 2.0, Standard deviation 2.077 %) -5.57%; (Concentration 99.5 uM, Number of replicates 2.0, Standard deviation 0.313 %) 0.467%.

Consider `O=C(Nc1ccccc1)Nc1ccc(C(=O)Nc2ncccc2F)cc1`, for which the inhibition worked out at 4.59% (Concentration 49.75 uM, Number of replicates 2.0, Standard deviation 1.252 %) and 10.2% (Concentration 99.5 uM, Number of replicates 2.0, Standard deviation 5.725 %).

`COc1ccc(Nc2ncnc3[nH]ncc23)c(OC)c1`: the inhibition (Concentration 50.0 uM, Number of replicates 2.0, Standard deviation 7.795 %) came to 2.6%.

Consider `Cc1cncc(NCc2csc(-c3ccccn3)n2)c1`, for which the inhibition (Concentration 50.0 uM, Number of replicates 2.0, Standard deviation 0.194 %) was -5.02%.

With `c1cc(-c2nnc(Sc3ncnc4[nH]ccc34)[nH]2)ccn1`, the inhibition stood at 10.7% (Concentration 50.0 uM, Number of replicates 2.0, Standard deviation 4.573 %); 5.47% (Concentration 50.0 uM, Number of replicates 2.0, Standard deviation 8.715 %); 3.32% (Concentration 100.0 uM, Number of replicates 2.0, Standard deviation 31.914 %).

`O=C(c1c[nH]nn1)N1CCC(c2ccn3ncc(C(=O)N4CCCCC4)c3c2)CC1`: the inhibition reads like this: (Concentration 49.75 uM, Number of replicates 2.0, Standard deviation 0.286 %) 14.7%; (Concentration 99.5 uM, Number of replicates 2.0, Standard deviation 4.61 %) 25.6%.

`Cn1c(C(=O)N(CCC(=O)N2CCNCC2)Cc2cccc(Cl)c2)cnc1O`: the inhibition is, setting by setting: (Concentration 49.75 uM, Number of replicates 2.0, Standard deviation 0.601 %) -4.76%; (Concentration 99.5 uM, Number of replicates 2.0, Standard deviation 2.256 %) -2.76%.

For `Cc1ccc2ccccc2c1-c1ncnc2[nH]ccc12`, the inhibition by setting is: (Concentration 49.75 uM, Number of replicates 2.0, Standard deviation 3.409 %) -5.32%; (Concentration 99.5 uM, Number of replicates 2.0, Standard deviation 3.055 %) -9.1%.

On to `FC(F)(F)Oc1ccccc1-c1ncnc2[nH]ccc12`, for which the inhibition by setting is: (Concentration 50.0 uM, Number of replicates 2.0, Standard deviation 5.274 %) -3.37%; (Concentration 100.0 uM, Number of replicates 2.0, Standard deviation 3.913 %) 2.12%.

Regarding `C(=C1CCCCC1)c1ncnc2[nH]ccc12`, the inhibition runs as follows: (Concentration 50.0 uM, Number of replicates 2.0, Standard deviation 3.96 %) -5.46%; (Concentration 100.0 uM, Number of replicates 2.0, Standard deviation 2.541 %) 3.46%.

Regarding `OC[C@@H](Nc1ncnc2[nH]c(I)cc12)c1ccccc1`, for the setting “Concentration 50.0 uM, Number of replicates 2.0, Standard deviation 1.35 %”, the inhibition came to 26.1%.

With `c1ccc(CN2CCO[C@@H](CNc3ncnc4nc[nH]c34)C2)cc1`, the inhibition (Concentration 50.0 uM, Number of replicates 2.0, Standard deviation 1.424 %) is -2.44%.

With `Cc1[nH]nc(C(=O)N2CCC(c3ccn4ncc(C(=O)N5CCCCC5)c4c3)CC2)c1C`, the inhibition stood at 18% (Concentration 49.75 uM, Number of replicates 2.0, Standard deviation 4.553 %) and 33.8% (Concentration 99.5 uM, Number of replicates 2.0, Standard deviation 2.151 %).

Regarding `O=C(c1ncc[nH]1)N1CCC(c2ccn3ncc(C(=O)N4CCCCC4)c3c2)CC1`, the inhibition (Concentration 49.75 uM, Number of replicates 2.0, Standard deviation 1.065 %) is 18.5% and the inhibition (Concentration 99.5 uM, Number of replicates 2.0, Standard deviation 3.121 %) came out at 37.2%.

With `O=C1CCN(C(=O)c2cnn3ccc(C4CCN(C(=O)c5ccccc5)CC4)cc23)CCN1`, the inhibition is, setting by setting: (Concentration 49.75 uM, Number of replicates 2.0, Standard deviation 0.064 %) -2.4%; (Concentration 99.5 uM, Number of replicates 2.0, Standard deviation 5.989 %) -7.81%.

In the case of `Cn1cc([C@H]2CSCCN2c2ncnc3[nH]ccc23)cn1`, the inhibition by setting is: (Concentration 49.75 uM, Number of replicates 2.0, Standard deviation 2.461 %) -6.49%; (Concentration 99.5 uM, Number of replicates 2.0, Standard deviation 0.732 %) -3.46%.

For `O=C(NCc1c[nH]nn1)c1cnn2ccc(C3CCN(C(=O)c4ccccc4)CC3)cc12`, the inhibition (Concentration 49.75 uM, Number of replicates 2.0, Standard deviation 0.251 %) is -2.86% and the inhibition (Concentration 99.5 uM, Number of replicates 2.0, Standard deviation 8.51 %) stood at 2.17%.

As for `CCO[C@@H]1C[C@@H](Nc2ncnc3[nH]ccc23)C12CCOCC2`, under “Concentration 50.0 uM, Number of replicates 2.0, Standard deviation 3.029 %”, the inhibition amounted to 2.32%.

Regarding `O=C(c1cc(O)ccn1)N1CCC(c2ccn3ncc(C(=O)N4CCCCC4)c3c2)CC1`, the inhibition amounted to 17.6% (Concentration 49.75 uM, Number of replicates 2.0, Standard deviation 1.167 %) and 32.2% (Concentration 99.5 uM, Number of replicates 2.0, Standard deviation 1.673 %).

`CC(C)[C@@H](CCN(C)C(=O)c1nn2cccnc2c1Cl)Nc1ncnc2[nH]ccc12`: the inhibition (Concentration 49.75 uM, Number of replicates 2.0, Standard deviation 6.794 %) was 0.844% and the inhibition (Concentration 99.5 uM, Number of replicates 2.0, Standard deviation 0.494 %) is 1.65%.

On to `Cc1ncc(C(=O)N(CCC(=O)N2CCNCC2)Cc2cccc(Cl)c2)cc1N`, for which the inhibition reads like this: (Concentration 49.75 uM, Number of replicates 2.0, Standard deviation 3.028 %) 1.35%; (Concentration 99.5 uM, Number of replicates 2.0, Standard deviation 0.599 %) 1.3%.

Regarding `CN1CCC[C@H](NC(=O)c2cnn3ccc(C4CCN(C(=O)c5ccccc5)CC4)cc23)C1`, the inhibition was -6.99% (Concentration 49.75 uM, Number of replicates 2.0, Standard deviation 0.821 %) and -5.44% (Concentration 99.5 uM, Number of replicates 2.0, Standard deviation 3.447 %).

`Cc1[nH]c2ncnc(NC(=O)C3CC=CC3)c2c1C`: under “Concentration 50.0 uM, Number of replicates 2.0, Standard deviation 5.54 %”, the inhibition was found to be 73.1%.

In the case of `C[C@@H](CO)Nc1ncnc2[nH]c(C(=O)OC(C)(C)C)cc12`, the inhibition (Concentration 50.0 uM, Number of replicates 2.0, Standard deviation 12.843 %) was 10.7%.

Consider `CCn1cc(CNc2cc3c(O)ncnc3cn2)nn1`, for which the inhibition (Concentration 50.0 uM, Number of replicates 2.0, Standard deviation 1.563 %) came to 1.67%.

With `C[C@H](NC(=O)c1cnn2ccc(C3CCN(C(=O)c4ccccc4)CC3)cc12)c1cccnc1`, the inhibition (Concentration 49.75 uM, Number of replicates 2.0, Standard deviation 2.207 %) was -1.84% and the inhibition (Concentration 99.5 uM, Number of replicates 2.0, Standard deviation 1.542 %) was -6.21%.

Consider `O[C@H]1C[C@](CNc2ncnc3[nH]ccc23)(c2ccccc2)C1`, for which, under “Concentration 50.0 uM, Number of replicates 2.0, Standard deviation 6.633 %”, the inhibition was 11.4%.

Regarding `c1cc(CNc2ncnc3nc[nH]c23)n2ncnc2c1`, the inhibition by setting is: (Concentration 50.0 uM, Number of replicates 2.0, Standard deviation 1.124 %) 1.35%; (Concentration 100.0 uM, Number of replicates 2.0, Standard deviation 5.338 %) 10%.

Consider `c1ccc(OC[C@@H]2CCCN2c2ncnc3[nH]ccc23)cc1`, for which, under “Concentration 50.0 uM, Number of replicates 2.0, Standard deviation 1.709 %”, the inhibition was -0.466%.

Regarding `O=C(c1ccc(O)nc1)N1CCC(c2ccn3ncc(C(=O)N4CCCCC4)c3c2)CC1`, the inhibition by setting is: (Concentration 49.75 uM, Number of replicates 2.0, Standard deviation 5.093 %) 11%; (Concentration 99.5 uM, Number of replicates 2.0, Standard deviation 0.548 %) 26.5%.

On to `CC(C)[C@H]1CNC(=O)CN1c1ncnc2[nH]ccc12`, for which the inhibition by setting is: (Concentration 49.75 uM, Number of replicates 2.0, Standard deviation 0.296 %) 6.84%; (Concentration 99.5 uM, Number of replicates 2.0, Standard deviation 2.93 %) 17.6%.

Consider `COC[C@@H](Nc1ncnc2nc[nH]c12)c1ccc(C)o1`, for which the inhibition (Concentration 49.75 uM, Number of replicates 2.0, Standard deviation 2.621 %) is -4.64% and the inhibition (Concentration 99.5 uM, Number of replicates 2.0, Standard deviation 0.049 %) came to 3.94%.

Consider `CC(C)[C@@H](Nc1ncnc2[nH]ccc12)c1cccs1`, for which the inhibition by setting is: (Concentration 49.75 uM, Number of replicates 2.0, Standard deviation 1.872 %) 84.7%; (Concentration 99.5 uM, Number of replicates 2.0, Standard deviation 2.645 %) 89.9%.

Turning to `O=C(Cc1ccns1)Nc1ncnc2[nH]cnc12`, the inhibition was -9.5% (Concentration 49.75 uM, Number of replicates 2.0, Standard deviation 7.374 %) and -3.24% (Concentration 99.5 uM, Number of replicates 2.0, Standard deviation 4.303 %).

As for `O=C(Nc1ccccc1)Nc1ccc(C(=O)N2CCc3ccncc32)cc1`, the inhibition is, setting by setting: (Concentration 49.75 uM, Number of replicates 2.0, Standard deviation 6.741 %) -4.3%; (Concentration 99.5 uM, Number of replicates 2.0, Standard deviation 1.961 %) 0.234%.

Turning to `Cc1c([C@@H](C)Nc2ncnc3[nH]ccc23)cnn1-c1ccccc1`, the inhibition (Concentration 49.75 uM, Number of replicates 2.0, Standard deviation 1.063 %) is 28.1% and the inhibition (Concentration 99.5 uM, Number of replicates 2.0, Standard deviation 3.12 %) came out at 41.7%.

On to `C[C@H](NC(=O)c1ccc(NC(=O)Nc2ccccc2)cc1)[C@@H]1CCCO1`, for which the inhibition is -4.28% (Concentration 49.75 uM, Number of replicates 2.0, Standard deviation 1.099 %) and -4.86% (Concentration 99.5 uM, Number of replicates 2.0, Standard deviation 2.587 %).

As to `Cc1ccc(S(=O)(=O)Nc2ccccc2F)cc1C(=O)Nc1cnc2[nH]ncc2c1`, the inhibition (Concentration 50.0 uM, Number of replicates 2.0, Standard deviation 3.248 %) was determined as 0.764%.

As for `C[C@@H]1[C@H](O)CCCN1C(=O)c1ccc(NC(=O)Nc2ccccc2)cc1`, the inhibition is -2.96% (Concentration 49.75 uM, Number of replicates 2.0, Standard deviation 0.457 %) and -2.72% (Concentration 99.5 uM, Number of replicates 2.0, Standard deviation 5.068 %).

Values taken from ChEMBL document CHEMBL5442379, “ASAP - SARS-CoV-2 nsp3 macrodomain single point” (2024).
